Data published in US20070031482A1, “PDT treatment method for cellulites and cosmetic use” (CeramOptec Industries, Ind., priority 2005, published 2007).

Tests used:
cellulites = assay: PDT treatment of cellulites with Temoporfin solution by Mesotherapy and diode laser (Example 1); type: in vivo, patient; settings: 1 session per area, followed by appropriate physiotherapy / complementary session (ultrasound, lymph-drainage, electro-stimulation); evaluation after 30 days
Experimental: A patient having cellulites is treated with Temoporfin in several sessions. The variables in this treatment program are as follows: • 1.—A determination of the grade of cellulites in the patient. • 2.—A determination of the dose and concentration of Temoporfin and to confirm that it produces an improvement on the cellulites, and to further insure that it is possible to apply it directly by Mesotherapy without the need of systemic introduction. • 3.—A determination as to the potency of Temoporfin based on the time of application to the time of laser application; and • 4.—A determination as to accompanying treatments. In this EXAMPLE, the patient is administered the Temoporfin solution as follows: In all sequences, the treatment consists 1 session only per area to be treated, and, if necessary, it is repeated in 30 days. In general, it was observed that only 1 session followed by appropriate physiotherapy, a complementary session (like ultrasound, lymph-drainage, isotonic and isometric electro-stimulation), was usually sufficient in more than 80% of the patients. If it was necessary to repeat it, an evaluation is done after 30 days. Table 2 presents further information as to the stage of cellulite, concentration of mTHPC (Temoporfin), dose, surface area being treated; strength, power level and time of laser radiation application. [table] […]

[1] = without light activation; cited from earlier work
[2] = cited from earlier work

## Oc1cccc(-c2c3nc(c(-c4cccc(O)c4)c4ccc([nH]4)c(-c4cccc(O)c4)c4nc(c(-c5cccc(O)c5)c5ccc2[nH]5)CC4)C=C3)c1 [Temoporfin]
cellulites
  patients in whom only 1 session was usually sufficient: more than 80 % of the patients
[1]
  effect in the dark: totally innocuous and inactive in the dark
[2]
  solubility in triglycerides: not soluble in triglycerides
